Values joined by “and” are separate entries in the source; they are usually repeats but may differ in a detail not shown here. Equal entries are not always repeated. Toxic doses and inconclusive results are not listed.
System: CD2F1 mice, L1210 leukemia ip, survival T/C
Experiment: NCI In Vivo Anticancer Drug Screen. Data for tumor model L1210 Leukemia (intraperitoneal) in CD2F1 (CDF1) mice
Conditions: higher = longer survival
In short: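 Vehicle-treated tumor-bearing mice served as controls (C) for compound-treated mice (T). Reported figure is T divided by C.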

[1] = endpoint: mean survival time, dose: 100.0 mg/kg/injection, schedule: Q01DX009 (ip), vehicle: saline with Tween-80
[2] = endpoint: mean survival time, dose: 100.0 mg/kg/injection, schedule: Q04DX003 (ip), vehicle: saline with Tween-80
[3] = endpoint: mean survival time, dose: 200.0 mg/kg/injection, schedule: Q01DX009 (ip), vehicle: saline with Tween-80
[4] = endpoint: mean survival time, dose: 200.0 mg/kg/injection, schedule: Q04DX003 (ip), vehicle: saline with Tween-80
[5] = endpoint: mean survival time, dose: 400.0 mg/kg/injection, schedule: Q04DX003 (ip), vehicle: saline with Tween-80
[6] = endpoint: mean survival time, dose: 50.0 mg/kg/injection, schedule: Q01DX009 (ip), vehicle: saline
[7] = endpoint: mean survival time, dose: 100.0 mg/kg/injection, schedule: Q01DX009 (ip), vehicle: saline
[8] = endpoint: mean survival time, dose: 400.0 mg/kg/injection, schedule: Q01DX009 (ip), vehicle: saline with Tween-80
[9] = endpoint: mean survival time, dose: 100.0 mg/kg/injection, schedule: Q04DX002 (ip), vehicle: saline with Tween-80
[10] = endpoint: mean survival time, dose: 200.0 mg/kg/injection, schedule: Q04DX002 (ip), vehicle: saline with Tween-80
[11] = endpoint: mean survival time, dose: 400.0 mg/kg/injection, schedule: Q04DX002 (ip), vehicle: saline with Tween-80
[12] = endpoint: mean survival time, dose: 100.0 mg/kg/injection, schedule: Q01DX001 (ip), vehicle: saline with Tween-80
[13] = endpoint: mean survival time, dose: 200.0 mg/kg/injection, schedule: Q01DX001 (ip), vehicle: saline with Tween-80
[14] = endpoint: mean survival time, dose: 400.0 mg/kg/injection, schedule: Q01DX001 (ip), vehicle: saline with Tween-80
[15] = endpoint: mean survival time, dose: 100.0 mg/kg/injection, schedule: Q01DX001 (ip), vehicle: saline
[16] = endpoint: mean survival time, dose: 200.0 mg/kg/injection, schedule: Q01DX001 (ip), vehicle: saline
[17] = endpoint: mean survival time, dose: 400.0 mg/kg/injection, schedule: Q01DX001 (ip), vehicle: saline
[18] = endpoint: mean survival time, dose: 25.0 mg/kg/injection, schedule: Q01DX009 (ip), vehicle: saline with Tween-80
[19] = endpoint: mean survival time, dose: 50.0 mg/kg/injection, schedule: Q01DX009 (ip), vehicle: saline with Tween-80
[20] = endpoint: mean survival time, dose: 100.0 mg/kg/injection, schedule: Q04DX003 (ip), vehicle: saline

NC(=O)c1n[nH]c(C2OC(CO)C(O)C2O)n1 (configuration not stated)
T/C (endpoint: mean survival time, dose: 12.5 mg/kg/injection, schedule: Q01DX005 (ip), vehicle: water): 94 % of control | T/C (endpoint: mean survival time, dose: 25.0 mg/kg/injection, schedule: Q01DX005 (ip), vehicle: water): 92 % of control | T/C (endpoint: mean survival time, dose: 50.0 mg/kg/injection, schedule: Q01DX005 (ip), vehicle: water): 94 % of control | T/C (endpoint: mean survival time, dose: 100.0 mg/kg/injection, schedule: Q01DX005 (ip), vehicle: water): 94 % of control | T/C (endpoint: mean survival time, dose: 200.0 mg/kg/injection, schedule: Q01DX005 (ip), vehicle: water): 96 % of control

COc1cc(OC)c2c(c1Cl)OCC2=O
T/C [1]: 91 % of control | T/C [2]: 103 % of control | T/C [3]: 91 % of control | T/C [4]: 94 % of control | T/C [5]: 97 % of control

BrCCC1(CCBr)CCCCC1
T/C (endpoint: median survival time, dose: 50.0 mg/kg/injection, schedule: Q01DX009 (ip), vehicle: other): 104 % of control | T/C (endpoint: median survival time, dose: 200.0 mg/kg/injection, schedule: Q01DX009 (ip), vehicle: other): 101 % of control | T/C (endpoint: median survival time, dose: 400.0 mg/kg/injection, schedule: Q01DX009 (ip), vehicle: other): 101 % of control | T/C (endpoint: median survival time, dose: 800.0 mg/kg/injection, schedule: Q01DX009 (ip), vehicle: other): 101 % of control

COC(=O)N1C=Cc2ccccc2C1C#N (configuration not stated)
T/C (endpoint: mean survival time, dose: 25.0 mg/kg/injection, schedule: Q01DX009 (ip), vehicle: saline): 89 % of control | T/C [6]: 98 % of control | T/C [7]: 88 % of control

COc1ccc(C(=O)NS(=O)(=O)c2ccc(C)cc2)cc1
T/C [1]: 103 % of control | T/C [3]: 98 % of control | T/C [8]: 104 % of control

C(=NCc1ccccc1)c1ccc2c(c1)OCO2
T/C [9]: 100 % of control | T/C [10]: 100 % of control | T/C [11]: 100 % of control

Cc1ncc([N+](=O)[O-])cc1C(=O)O
T/C [2]: 94 % of control | T/C [4]: 96 % of control | T/C [5]: 93 % of control

[N-]=[N+]=CC(=O)c1c(Cl)n(-c2ccccc2)c2ccccc12
T/C (endpoint: mean survival time, dose: 50.0 mg/kg/injection, schedule: Q04DX003 (ip), vehicle: saline with Tween-80): 90 % of control | T/C [2]: 98 % of control | T/C [4]: 101 % of control

CCOC(=O)C1C(=O)N(c2ccccc2)C(=O)N1C (configuration not stated)
T/C (endpoint: mean survival time, dose: 12.5 mg/kg/injection, schedule: Q01DX009 (ip), vehicle: water): 94 % of control | T/C (endpoint: mean survival time, dose: 25.0 mg/kg/injection, schedule: Q01DX009 (ip), vehicle: water): 93 % of control | T/C (endpoint: mean survival time, dose: 50.0 mg/kg/injection, schedule: Q01DX009 (ip), vehicle: water): 94 % of control | T/C (endpoint: mean survival time, dose: 100.0 mg/kg/injection, schedule: Q01DX009 (ip), vehicle: water): 98 % of control | T/C (endpoint: mean survival time, dose: 200.0 mg/kg/injection, schedule: Q01DX009 (ip), vehicle: water): 100 % of control

CN(C)N=Nc1cn[nH]c1C(N)=O
T/C (endpoint: mean survival time, dose: 100.0 mg/kg/injection, schedule: Q01DX009 (ip), vehicle: Klucel (hydroxypropylcellulose) (HPC)): 172 % of control

C/C(=N\Nc1ccc2ccccc2n1)c1ccccc1O
T/C [9]: 98 % of control | T/C [10]: 98 % of control | T/C [11]: 110 % of control

CCOC(=O)NCNC(C)C(=O)O (configuration not stated)
T/C [6]: 115 % of control | T/C [7]: 104 % of control | T/C (endpoint: mean survival time, dose: 200.0 mg/kg/injection, schedule: Q01DX009 (ip), vehicle: saline): 115 % of control

Nc1ccc(-c2nc(N)[nH]c(=O)c2N)cc1
T/C [12]: 96 % of control | T/C [13]: 92 % of control | T/C [14]: 88 % of control

CC1(C)SCNC1C(=O)O (configuration not stated)
T/C [15]: 96 % of control | T/C [16]: 100 % of control | T/C [17]: 94 % of control

COC(COC(=O)N1CCN(C=O)CC1)C1=C(N2CC2)C(=O)C(C)=C(N2CC2)C1=O (configuration not stated)
T/C (endpoint: median survival time, dose: 3.0 mg/kg/injection, schedule: Q01DX005 (ip), vehicle: saline): 168 % of control | T/C (endpoint: median survival time, dose: 3.6 mg/kg/injection, schedule: Q01DX005 (ip), vehicle: saline): 160 % of control | T/C (endpoint: median survival time, dose: 6.0 mg/kg/injection, schedule: Q01DX005 (ip), vehicle: saline): 190 % of control and 191 % of control | T/C (endpoint: median survival time, dose: 12.0 mg/kg/injection, schedule: Q01DX005 (ip), vehicle: saline): 111 % of control

N#CC1CCCC1=N (configuration not stated)
T/C (endpoint: mean survival time, dose: 12.5 mg/kg/injection, schedule: Q01DX009 (ip), vehicle: saline with Tween-80): 94 % of control | T/C [18]: 97 % of control | T/C [15]: 110 % of control | T/C [16]: 104 % of control | T/C [17]: 111 % of control

CCC(C)C(C(=O)O)c1ccccc1 (configuration not stated)
T/C [1]: 104 % of control | T/C [3]: 101 % of control | T/C [8]: 98 % of control

CCCCCCCCCCCCCCCCC(C(=O)O)C(O)(CC(=O)O)C(=O)O (configuration not stated)
T/C [18]: 90 % of control | T/C [19]: 88 % of control

O=C(N/N=C/c1ccc2c(c1)CCC2)c1ccccc1[N+](=O)[O-]
T/C (endpoint: mean survival time, dose: 100.0 mg/kg/injection, schedule: Q01DX001 (ip), vehicle: Klucel (hydroxypropylcellulose) (HPC)): 95 % of control | T/C (endpoint: mean survival time, dose: 200.0 mg/kg/injection, schedule: Q01DX001 (ip), vehicle: Klucel (hydroxypropylcellulose) (HPC)): 94 % of control | T/C [4]: 89 % of control | T/C (endpoint: mean survival time, dose: 400.0 mg/kg/injection, schedule: Q01DX001 (ip), vehicle: Klucel (hydroxypropylcellulose) (HPC)): 97 % of control | T/C [5]: 96 % of control

COc1ccc(NC(=O)Nc2cc(C(F)(F)F)ccc2Cl)cc1
T/C [1]: 90 % of control | T/C [3]: 98 % of control | T/C [8]: 86 % of control

CCCOC(=O)C1CCCCC1C(=O)OCCC (configuration not stated)
T/C [20]: 98 % of control | T/C (endpoint: mean survival time, dose: 200.0 mg/kg/injection, schedule: Q04DX003 (ip), vehicle: saline): 98 % of control | T/C (endpoint: mean survival time, dose: 400.0 mg/kg/injection, schedule: Q04DX003 (ip), vehicle: saline): 104 % of control

OCC1OC(n2cnc3c(SSc4ncnc5c4ncn5C4OC(CO)C(O)C4O)ncnc32)C(O)C1O (configuration not stated)
T/C (endpoint: mean survival time, dose: 178.0 mg/kg/injection, schedule: Q01DX009 (ip), vehicle: saline): 115 % of control | T/C (endpoint: mean survival time, dose: 400.0 mg/kg/injection, schedule: Q01DX009 (ip), vehicle: saline): 150 % of control

O=C(CCCl)c1ccccc1
T/C (endpoint: mean survival time, dose: 25.0 mg/kg/injection, schedule: Q01DX009 (ip), vehicle: other): 104 % of control | T/C (endpoint: mean survival time, dose: 50.0 mg/kg/injection, schedule: Q01DX009 (ip), vehicle: other): 100 % of control | T/C (endpoint: mean survival time, dose: 100.0 mg/kg/injection, schedule: Q01DX009 (ip), vehicle: other): 92 % of control and 96 % of control

Cc1cc(Cl)ccc1OCC(=O)Nc1nc(N)nc(N)n1
T/C [1]: 105 % of control | T/C [2]: 89 % of control | T/C [3]: 102 % of control | T/C [4]: 90 % of control | T/C [8]: 100 % of control | T/C [5]: 101 % of control

O=C(O)CNCP(=O)(O)O
T/C [1]: 95 % of control | T/C [2]: 105 % of control | T/C [3]: 93 % of control | T/C [4]: 102 % of control | T/C [8]: 89 % of control | T/C [5]: 100 % of control

O=C(Nc1nc(-c2ccccc2)cs1)Nc1cccc(Cl)c1Cl
T/C [19]: 101 % of control | T/C [1]: 90 % of control | T/C [3]: 97 % of control

CC1C2OC2C(C)S1(=O)=O (configuration not stated)
T/C [12]: 100 % of control | T/C [9]: 93 % of control | T/C [13]: 101 % of control | T/C [10]: 101 % of control | T/C [14]: 101 % of control | T/C [11]: 89 % of control

Cn1c(=O)c2c(ncn2CN2CCN(Cn3cnc4c3c(=O)n(C)c(=O)n4C)CC2)n(C)c1=O
T/C [15]: 94 % of control | T/C [16]: 97 % of control

O=C1NCC2(CCN(Cc3ccccc3)CC2)N1c1ccccc1
T/C [2]: 93 % of control | T/C [4]: 89 % of control | T/C [5]: 89 % of control

CCCCCCCCCCCCOc1ccc(F)cc1C
T/C [9]: 93 % of control | T/C [10]: 93 % of control | T/C [11]: 96 % of control

COC(=O)C1C(=O)CC2N(C)C1C(C)(C)C2(C)C (configuration not stated)
T/C [9]: 115 % of control | T/C [10]: 107 % of control

CC(C)=NC(=O)NO.[Cl][Co][Cl]
T/C (endpoint: mean survival time, dose: 50.0 mg/kg/injection, schedule: Q04DX003 (ip), vehicle: saline): 109 % of control | T/C (endpoint: mean survival time, dose: 75.0 mg/kg/injection, schedule: Q04DX003 (ip), vehicle: saline): 113 % of control | T/C [20]: 100 % of control | T/C (endpoint: mean survival time, dose: 125.0 mg/kg/injection, schedule: Q04DX003 (ip), vehicle: saline): 113 % of control
